Measurements published in ChEMBL document CHEMBL4177730, “Rational modification of semaxanib and sunitinib for developing a tumor growth inhibitor targeting ATP binding site of tyrosine kinase” (2018).
Calls of active or inactive are those of the source.

Experiments:
Format in all cases: functional, cell-based
CCRF-CEM = assay: Growth inhibition of human CCRF-CEM cells at 10 uM after 48 hrs by sulforhodamine B assay
HL-60(TB) = assay: Growth inhibition of human HL-60(TB) cells at 10 uM after 48 hrs by sulforhodamine B assay
K562 = assay: Growth inhibition of human K562 cells at 10 uM after 48 hrs by sulforhodamine B assay
MOLT-4 = assay: Growth inhibition of human MOLT4 cells at 10 uM after 48 hrs by sulforhodamine B assay
RPMI-8226 = assay: Growth inhibition of human RPMI8226 cells at 10 uM after 48 hrs by sulforhodamine B assay
SR = assay: Growth inhibition of human SR cells at 10 uM after 48 hrs by sulforhodamine B assay
A549 = assay: Growth inhibition of human A549/ATCC cells at 10 uM after 48 hrs by sulforhodamine B assay
EKVX = assay: Growth inhibition of human EKVX cells at 10 uM after 48 hrs by sulforhodamine B assay
HOP-62 = assay: Growth inhibition of human HOP62 cells at 10 uM after 48 hrs by sulforhodamine B assay
HOP-92 = assay: Growth inhibition of human HOP92 cells at 10 uM after 48 hrs by sulforhodamine B assay
NCI-H226 = assay: Growth inhibition of human NCI-H226 cells at 10 uM after 48 hrs by sulforhodamine B assay
NCI-H23 = assay: Growth inhibition of human NCI-H23 cells at 10 uM after 48 hrs by sulforhodamine B assay
NCI-H322M = assay: Growth inhibition of human NCI-H322M cells at 10 uM after 48 hrs by sulforhodamine B assay
NCI-H460 = assay: Growth inhibition of human NCI-H460 cells at 10 uM after 48 hrs by sulforhodamine B assay
NCI-H522 = assay: Growth inhibition of human NCI-H522 cells at 10 uM after 48 hrs by sulforhodamine B assay
COLO 205 = assay: Growth inhibition of human COLO205 cells at 10 uM after 48 hrs by sulforhodamine B assay
HCC 2998 = assay: Growth inhibition of human HCC2998 cells at 10 uM after 48 hrs by sulforhodamine B assay
HCT-116 = assay: Growth inhibition of human HCT116 cells at 10 uM after 48 hrs by sulforhodamine B assay
HCT-15 = assay: Growth inhibition of human HCT15 cells at 10 uM after 48 hrs by sulforhodamine B assay
HT-29 = assay: Growth inhibition of human HT-29 cells at 10 uM after 48 hrs by sulforhodamine B assay
KM12 = assay: Growth inhibition of human KM12 cells at 10 uM after 48 hrs by sulforhodamine B assay
SW-620 = assay: Growth inhibition of human SW620 cells at 10 uM after 48 hrs by sulforhodamine B assay
SF-268 = assay: Growth inhibition of human SF268 cells at 10 uM after 48 hrs by sulforhodamine B assay
SF-295 = assay: Growth inhibition of human SF295 cells at 10 uM after 48 hrs by sulforhodamine B assay
SF-539 = assay: Growth inhibition of human SF539 cells at 10 uM after 48 hrs by sulforhodamine B assay
SNB-19 = assay: Growth inhibition of human SNB19 cells at 10 uM after 48 hrs by sulforhodamine B assay
SNB-75 = assay: Growth inhibition of human SNB75 cells at 10 uM after 48 hrs by sulforhodamine B assay
U-251 = assay: Growth inhibition of human U251 cells at 10 uM after 48 hrs by sulforhodamine B assay
LOX IMVI = assay: Growth inhibition of human LOXIMVI cells at 10 uM after 48 hrs by sulforhodamine B assay
Malme-3M = assay: Growth inhibition of human MALME-3M cells at 10 uM after 48 hrs by sulforhodamine B assay
M14 = assay: Growth inhibition of human M14 cells at 10 uM after 48 hrs by sulforhodamine B assay
MDA-MB-435 = assay: Growth inhibition of human MDA-MB-435 cells at 10 uM after 48 hrs by sulforhodamine B assay
SK-MEL-2 = assay: Growth inhibition of human SK-MEL-2 cells at 10 uM after 48 hrs by sulforhodamine B assay
SK-MEL-28 = assay: Growth inhibition of human SK-MEL-28 cells at 10 uM after 48 hrs by sulforhodamine B assay
SK-MEL-5 = assay: Growth inhibition of human SK-MEL-5 cells at 10 uM after 48 hrs by sulforhodamine B assay
UACC-62 = assay: Growth inhibition of human UACC62 cells at 10 uM after 48 hrs by sulforhodamine B assay
IGROV-1 = assay: Growth inhibition of human IGROV1 cells at 10 uM after 48 hrs by sulforhodamine B assay
OVCAR-3 = assay: Growth inhibition of human OVCAR3 cells at 10 uM after 48 hrs by sulforhodamine B assay
OVCAR-4 = assay: Growth inhibition of human OVCAR4 cells at 10 uM after 48 hrs by sulforhodamine B assay
OVCAR-5 = assay: Growth inhibition of human OVCAR5 cells at 10 uM after 48 hrs by sulforhodamine B assay
OVCAR-8 = assay: Growth inhibition of human OVCAR8 cells at 10 uM after 48 hrs by sulforhodamine B assay
NCI/ADR-RES = assay: Growth inhibition of human NCI-ADR-RES cells at 10 uM after 48 hrs by sulforhodamine B assay
SK-OV-3 = assay: Growth inhibition of human SKOV3 cells at 10 uM after 48 hrs by sulforhodamine B assay
786-0 = assay: Growth inhibition of human 786-0 cells at 10 uM after 48 hrs by sulforhodamine B assay
A498 = assay: Growth inhibition of human A498 cells at 10 uM after 48 hrs by sulforhodamine B assay
ACHN = assay: Growth inhibition of human ACHN cells at 10 uM after 48 hrs by sulforhodamine B assay
CAKI-1 = assay: Growth inhibition of human CAKI-1 cells at 10 uM after 48 hrs by sulforhodamine B assay
RXF 393 = assay: Growth inhibition of human RXF393 cells at 10 uM after 48 hrs by sulforhodamine B assay
SN12C = assay: Growth inhibition of human SN12C cells at 10 uM after 48 hrs by sulforhodamine B assay
TK-10 = assay: Growth inhibition of human TK10 cells at 10 uM after 48 hrs by sulforhodamine B assay
UO-31 = assay: Growth inhibition of human UO31 cells at 10 uM after 48 hrs by sulforhodamine B assay
PC-3 = assay: Growth inhibition of human PC3 cells at 10 uM after 48 hrs by sulforhodamine B assay
DU-145 = assay: Growth inhibition of human DU145 cells at 10 uM after 48 hrs by sulforhodamine B assay
MCF7 = assay: Growth inhibition of human MCF7 cells at 10 uM after 48 hrs by sulforhodamine B assay
MDA-MB-231 = assay: Growth inhibition of human MDA-MB-231 cells at 10 uM after 48 hrs by sulforhodamine B assay
Hs-578T = assay: Growth inhibition of human Hs 578T cells at 10 uM after 48 hrs by sulforhodamine B assay
BT-549 = assay: Growth inhibition of human BT549 cells at 10 uM after 48 hrs by sulforhodamine B assay
T47D = assay: Growth inhibition of human T47D cells at 10 uM after 48 hrs by sulforhodamine B assay
MDA-MB-468 = assay: Growth inhibition of human MDA-MB-468 cells at 10 uM after 48 hrs by sulforhodamine B assay

Measured: growth inhibition (GI)

O=C1/C(=C\c2cccn2C(=O)c2ccc(Cl)s2)c2ccccc2N1c1c(Cl)cccc1Cl
inactive: CCRF-CEM | HL-60(TB) | K562 | MOLT-4 | RPMI-8226 | SR | A549 | EKVX | HOP-62 | HOP-92 | NCI-H226 | NCI-H23 | NCI-H322M | NCI-H460 | NCI-H522 | COLO 205 | HCC 2998 | HCT-116 | HCT-15 | HT-29 | KM12 | SW-620 | SF-268 | SF-295 | SF-539 | SNB-19 | SNB-75 | U-251 | LOX IMVI | Malme-3M | M14 | MDA-MB-435 | SK-MEL-2 | SK-MEL-28 | SK-MEL-5 | UACC-62 | IGROV-1 | OVCAR-3 | OVCAR-4 | OVCAR-5 | OVCAR-8 | NCI/ADR-RES | SK-OV-3 | 786-0 | A498 | ACHN | CAKI-1 | RXF 393 | SN12C | TK-10 | UO-31 | PC-3 | DU-145 | MCF7 | MDA-MB-231 | Hs-578T | BT-549 | T47D | MDA-MB-468
